The record followed here is paper PMC7181703, “Using proteolysis-targeting chimera technology to reduce navitoclax platelet toxicity and improve its senolytic activity” (Nature Communications, 2020).

Read-outs that look alike come from different tables or passages of the source.

Assay [1] concerns the target T1, Bcl-w (Homo sapiens, UniProt Q92843).
T1 construct: gene BCL2L2; Purified recombinant His-tagged Bcl-w
T1 sequence (Q92843 2-193): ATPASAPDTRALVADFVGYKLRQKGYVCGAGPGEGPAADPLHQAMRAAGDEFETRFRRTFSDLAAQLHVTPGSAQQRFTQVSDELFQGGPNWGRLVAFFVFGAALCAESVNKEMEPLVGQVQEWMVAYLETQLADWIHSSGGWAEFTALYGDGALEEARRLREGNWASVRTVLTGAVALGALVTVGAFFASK
Kind of assay: biochemical. The arrangement: AlphaLISA competitive displacement of biotin-tagged BAD or BIM peptide from His-tagged Bcl-2 family protein. As to the method: Purified recombinant His-tagged Bcl-xl, His-tagged Bcl-2 and His-tagged Bcl-w (Cat. No. SRP0187 for Bcl-xl, Cat. No. SRP0186 for Bcl-2 and Cat. No. B1059 for Bcl-w, Sigma-Aldrich) were incubated with increasing concentrations of compounds and a fixed concentration of biotin-tagged BAD (Cat No. SQ-ASPE-66592-1, AnaSpec, Fremont, CA) (for Bcl-xl) or BIM (Cat. No. SQ-ASPE-66592-2, AnaSpec) (for Bcl-2 and Bcl-w) peptides to a final volume of 40 µL in 96-well PCR plates. After 24 h incubation, 5 µL 6X His-Acceptor beads (final concentration 20 µg/mL) (Cat. No. AL128M, Perkin-Elmer, Waltham, MA, USA) were added to each well and incubated for 1 h. Thereafter, 5 µL streptavidin-donor beads were added (final concentration of 20 µg/mL) (Cat. No. 6760002, Perkin-Elmer) to each well and incubated for 30 min. At the end of the incubation period, 17 µL of each sample was transferred into adjacent wells of 384-well proxy plate (Cat. No. 6008280, Perkin-Elmer). The plate was scanned using Alpha program on a Biotek’s Synergy Neo2 multi-mode plate reader (Winooski, VT, USA). Gen5 version 3.04 software (BioTek, USA) was used for the AlphaLISA signal measurements. The inhibition constant (Ki) was calculated using non-linear regression, one site, competitive binding, fit Ki function on GraphPad Prism 7 software based on experimentally determined Kd for each protein/peptide pair.

The target in assay [2] is cereblon (CRBN) (Homo sapiens, UniProt Q96SW2). The assay can be described thus: CRBN-dependent Bcl-xl degradation in WI38 cells: CRBN knockout, pomalidomide competition, N-methyl negative control. In kind it is cell-based.
Assay [3] concerns the target T2, Bcl-xl (Homo sapiens, UniProt Q07817).
T2 construct: gene BCL2L1; Purified recombinant His-tagged Bcl-xl
Kind of assay: AlphaLISA/AlphaScreen competitive binding with biotin-tagged BAD peptide. Background: In Alpha technology, singlet oxygen from a donor bead excites a nearby acceptor bead.

Assay [4] deals with T3, Bcl-2 (Homo sapiens, UniProt P10415).
T3 construct: gene BCL2; Purified recombinant His-tagged Bcl-2
The arrangement: AlphaLISA competitive displacement of biotin-tagged BAD or BIM peptide from His-tagged Bcl-2 family protein. Conditions: inhibitor.

As for `CC1(C)CCC(c2ccc(Cl)cc2)=C(CN2CCN(c3ccc(C(=O)NS(=O)(=O)c4ccc(N[C@H](CCN5CCOCC5)CSc5ccccc5)c(S(=O)(=O)C(F)(F)F)c4)cc3)CC2)C1` [ABT263], the inhibition constant (Ki) (as a rule, the dissociation constant of the complex between target and ligand, obtained from inhibition or displacement) in assay [1] came out at 8.5 nM.

As to `CC1(C)CCC(c2ccc(Cl)cc2)=C(CN2CCN(c3ccc(C(=O)NS(=O)(=O)c4ccc(N[C@H](CCN5CCN(C(=O)CCCn6cc(COCCOCCNc7cccc8c7C(=O)N(C7CCC(=O)NC7=O)C8=O)nn6)CC5)CSc5ccccc5)c(S(=O)(=O)C(F)(F)F)c4)cc3)CC2)C1` (some centres unmarked) [PZ, PZ15227], in assay [2], the “CRBN-dependent Bcl-xl degradation in WI38 cells: CRBN knockout, pomalidomide com” value is “PZ had no effect on the levels of Bcl-xl in CRBN knockout cells (Fig. 2e)”. In addition, the Ki is 1.9 nM in assay [3], > 1000 nM in assay [1] (inhibitor) and 3.52 nM in assay [4].
